Experimental data published in ChEMBL document CHEMBL1129198, “Synthesis and antibacterial activity of lipophilic carbapenems with anti-MRSA activity” (Bioorg Med Chem Lett, 1996).
Converted amounts (≈) assume the structure as drawn.

Key:
[1] = system: Staphylococcus aureus; test: Antibacterial activity against methicillin-sensitive Staphylococcus aureus 601055.; assay type: functional
[2] = system: Streptococcus pneumoniae; test: Antibacterial activity against penicillin-resistant Streptococcus pneumoniae 671319; assay type: functional
[3] = system: Staphylococcus aureus; test: Antibacterial activity against methicillin-resistant Staphylococcus aureus 601053.; assay type: functional
[4] = system: Enterococcus faecalis; test: Antibacterial activity against vancomycin-sensitive Enterococcus faecalis 683026.; assay type: functional
[5] = system: Staphylococcus aureus; test: Antibacterial activity against methicillin-sensitive Staphylococcus aureus 601055.(grown in the presence of blood); assay type: functional
[6] = system: Staphylococcus aureus; test: Antibacterial activity against methicillin-resistant Staphylococcus aureus 607004.; assay type: functional
[7] = system: Staphylococcus haemolyticus; test: Antibacterial activity against methicillin-resistant Staphylococcus haemolyticus 601117; assay type: functional
[8] = system: Enterococcus faecium; test: Antibacterial activity against vancomycin-resistant Enterococcus faecium 628016.; assay type: functional
[9] = In vitro binding affinity towards PBP2'' of Staphylococcus aureus using [14C]benzylpenicillin as radioligand
[10] = system: Staphylococcus aureus; test: Compound was tested for its binding affinity against PBP2' receptor in Staphylococcus aureus.; assay type: functional, organism-based
[11] = system: Staphylococcus aureus; test: Compound was tested for its binding affinity against PBP2'' receptor in Staphylococcus aureus. Values taken from literature.; assay type: functional
[12] = system: Staphylococcus aureus; test: Compound was tested for its antibacterial activity against methicillin-resistant Staphylococcus aureus.; assay type: functional

Compound | MIC [1] | MIC [2] | MIC [3] | MIC [4] | MIC [5] | MIC [6] | MIC [7] | MIC [8] | IC50 [9] | IC50 [10] | IC50 [11] | MIC [12]
C[C@@H](O)[C@H]1C(=O)N2C(C(=O)O)=C(COc3ccc4occ(CN(C)C)c(=O)c4c3)[C@H](C)[C@H]12 | 0.06 µg/mL (≈ 0.136 µM) | 0.12 µg/mL (≈ 0.271 µM) | 0.5 µg/mL (≈ 1.13 µM) | 0.5 µg/mL (≈ 1.13 µM) | 0.016 µg/mL | 4 µg/mL (≈ 9.04 µM) | 2 µg/mL (≈ 4.52 µM) | 2 µg/mL (≈ 4.52 µM) | – | – | – | –
C[C@@H](O)[C@H]1C(=O)N2C(C(=O)O)=C(CNC(=O)c3ccc4ccccc4c3)[C@H](C)[C@H]12 | 0.5 µg/mL (≈ 1.27 µM) | 4 µg/mL (≈ 10.1 µM) | 8 µg/mL (≈ 20.3 µM) | 16 µg/mL (≈ 40.6 µM) | 0.25 µg/mL | 128 µg/mL (≈ 325 µM) | 128 µg/mL (≈ 325 µM) | 32 µg/mL (≈ 81.1 µM) | – | – | – | –
C[C@@H](O)[C@H]1C(=O)N2C(C(=O)O)=C(COc3ccc4ccccc4c3)[C@H](C)[C@H]12 | 0.016 µg/mL (≈ 0.0435 µM) | 4 µg/mL (≈ 10.9 µM) | 0.25 µg/mL (≈ 0.68 µM) | 128 µg/mL (≈ 348 µM) | 32 µg/mL | 4 µg/mL (≈ 10.9 µM) | 2 µg/mL (≈ 5.44 µM) | 64 µg/mL (≈ 174 µM) | – | – | – | –
Cc1nc2ccc(SCC3=C(C(=O)O)N4C(=O)[C@H]([C@@H](C)O)[C@H]4[C@H]3C)cc2s1 | 0.03 µg/mL (≈ 0.0742 µM) | 0.06 µg/mL (≈ 0.148 µM) | 2 µg/mL (≈ 4.94 µM) | 2 µg/mL (≈ 4.94 µM) | 0.016 µg/mL | 4 µg/mL (≈ 9.89 µM) | 4 µg/mL (≈ 9.89 µM) | 8 µg/mL (≈ 19.8 µM) | – | – | – | –
C[C@@H](O)[C@H]1C(=O)N2C(C(=O)O)=C(SCc3ccc4ccccc4c3)[C@H](C)[C@H]12 | 0.06 µg/mL (≈ 0.156 µM) | 0.06 µg/mL (≈ 0.156 µM) | 1 µg/mL (≈ 2.61 µM) | 2 µg/mL (≈ 5.22 µM) | 0.03 µg/mL | 1 µg/mL (≈ 2.61 µM) | 2 µg/mL (≈ 5.22 µM) | 8 µg/mL (≈ 20.9 µM) | 9.5 µg/mL (≈ 24.8 µM) | 9.5 µg/mL (≈ 24.8 µM) | 2 µg/mL (≈ 5.22 µM) | –
C[C@@H](O)[C@H]1C(=O)N2C(C(=O)O)=C(COc3ccc4occc(=O)c4c3)[C@H](C)[C@H]12 | 0.016 µg/mL (≈ 0.0415 µM) | 0.03 µg/mL (≈ 0.0778 µM) | 0.25 µg/mL (≈ 0.649 µM) | 2 µg/mL (≈ 5.19 µM) | 0.016 µg/mL | 2 µg/mL (≈ 5.19 µM) | 2 µg/mL (≈ 5.19 µM) | 2 µg/mL (≈ 5.19 µM) | – | – | – | –
C[C@@H](O)[C@H]1C(=O)N2C(C(=O)O)=C(CSc3ccc4ccccc4c3)[C@H](C)[C@H]12 | 0.016 µg/mL (≈ 0.0417 µM) | 1 µg/mL (≈ 2.61 µM) | 0.5 µg/mL (≈ 1.3 µM) | 128 µg/mL (≈ 334 µM) | 32 µg/mL | 4 µg/mL (≈ 10.4 µM) | 2 µg/mL (≈ 5.22 µM) | 128 µg/mL (≈ 334 µM) | – | – | – | –
C[C@@H](O)[C@H]1C(=O)N2C(C(=O)O)=C(SCCNC(=O)c3ccc4ccccc4c3)[C@H](C)[C@H]12 | 0.13 µg/mL (≈ 0.295 µM) | 0.25 µg/mL (≈ 0.568 µM) | 4 µg/mL (≈ 9.08 µM) | 4 µg/mL (≈ 9.08 µM) | 0.13 µg/mL | 64 µg/mL (≈ 145 µM) | 256 µg/mL (≈ 581 µM) | 8 µg/mL (≈ 18.2 µM) | – | – | – | –
C[C@@H](O)[C@H]1C(=O)N2C(C(=O)O)=C(CSc3ccc4ccccc4n3)[C@H](C)[C@H]12 | 0.016 µg/mL (≈ 0.0416 µM) | 0.06 µg/mL (≈ 0.156 µM) | 0.13 µg/mL (≈ 0.338 µM) | 4 µg/mL (≈ 10.4 µM) | 0.03 µg/mL | 4 µg/mL (≈ 10.4 µM) | 0.5 µg/mL (≈ 1.3 µM) | 1 µg/mL (≈ 2.6 µM) | – | – | – | –
C[C@@H](O)[C@H]1C(=O)N2C(C(=O)O)=C(Sc3cccc4ccccc34)[C@H](C)[C@H]12 | 0.06 µg/mL (≈ 0.162 µM) | 1 µg/mL (≈ 2.71 µM) | 1 µg/mL (≈ 2.71 µM) | 16 µg/mL (≈ 43.3 µM) | 0.06 µg/mL | 8 µg/mL (≈ 21.7 µM) | 8 µg/mL (≈ 21.7 µM) | 32 µg/mL (≈ 86.6 µM) | – | – | – | –
C[C@@H](O)[C@H]1C(=O)N2C(C(=O)O)=C(CSc3ccc4c(c3)CC(=O)N4C)[C@H](C)[C@H]12 | 0.12 µg/mL (≈ 0.298 µM) | 0.25 µg/mL (≈ 0.621 µM) | 4 µg/mL (≈ 9.94 µM) | 4 µg/mL (≈ 9.94 µM) | 0.06 µg/mL | 8 µg/mL (≈ 19.9 µM) | 16 µg/mL (≈ 39.8 µM) | 8 µg/mL (≈ 19.9 µM) | – | – | – | –
C[C@@H](O)[C@H]1C(=O)N2C(C(=O)O)=C(SCCNC=N)C[C@H]12 [IMIPENEM ANHYDROUS] | 0.03 µg/mL (≈ 0.1 µM) | 0.12 µg/mL (≈ 0.401 µM) | 8 µg/mL (≈ 26.7 µM) | 2 µg/mL (≈ 6.68 µM) | 0.015 µg/mL | 64 µg/mL (≈ 214 µM) | 64 µg/mL (≈ 214 µM) | 4 µg/mL (≈ 13.4 µM) | 430 µg/mL (≈ 1440 µM) | 430 µg/mL (≈ 1440 µM) | 220 µg/mL (≈ 735 µM) | 128 µg/mL (≈ 428 µM)
